Assay results as given in patent publication EP0193249A2, “Benzoyl urea derivatives having ati-tumor activity” (DUPHAR INTERNATIONAL RESEARCH B.V, priority 1985, dated 1986).

These molecules were tested on B16 melanoma cells (assay: B16 melanoma test (test 1)). Details: Mus musculus, 50 /ug/ml, aqueous suspension, incubation 20 hours, cells counted 48 hours after start.
Format: cell-based
Procedure: B16 melanoma cells grow as a "mono]ayer". The doubling time of these cells in a cell culture is 12-16 hours.
On day 0, a quantity of […] B16 melanoma cells is introduced in each cell culture dish.
On day 1 the compounds to be examined are vortexed in the presence of glass beads. The compound to be tested is then added to the dishes with melanoma celles in the desired quantity. The incubation takes place at 37°C for 20 hours in a C02 incubator. The incubation is terminated by removing the culture medium with therein the compound to be tested, after which the cells are wahsed once and fresh medium is added.
Forty-eight hours after the beginning of the incubation the quantity of cells in each dish is measured by means of a microcell Coulter Counter. The results thus obtained are expressed by indicating the activity of the compounds by 1+, 2+, 3+, 4+ or 5+ having the following meanings: • 1+: cell growth is inhibited by 1-20% with respect to the control test • 2+: cell growth is inhibited by 21-40% with respect to the control test • 3+: cell growth is inhibited by 41-60% with respect to the control test • 4+: cell growth is inhibited by 61-80% with respect to the control test • 5+: cell growth is inhibited by 81-100% with respect to the control test.
Sensitivity of B16 melanoma cells.
In the above-described manner, various compounds according to the invention were tested in dosages of 50 /ug/ml in the form of an aqueous suspension.

`O=C(NC(=O)c1c(O)cccc1Cl)Nc1c(F)c(F)c(F)c(F)c1F` [compound 1] and `CN(C)c1cccc(F)c1C(=O)NC(=O)Nc1c(F)c(F)c(F)c(F)c1F` [compound 12] fall in the same range of inhibition at 50 µg/mL: 61 to 80% for the first, 61 to 80% for the second.

First: O=C(NC(=O)c1c(F)c(F)c(F)c(F)c1F)Nc1ccc(O)c(C(F)(F)F)c1 [compound 2]
Second: O=C(NC(=O)c1c(F)c(F)c(F)c(F)c1F)Nc1ccc(Cl)cc1 [compound 7]
The inhibition at 50 µg/mL of the first is higher: 81 to 100% for the first, 61 to 80% for the second.

`CN(C)c1cccc(F)c1C(=O)NC(=O)Nc1ccc(Cl)cc1` [compound 3] and `COc1ccc(NC(=O)NC(=O)c2c(F)cccc2N(C)C)cc1` [compound 11] fall in the same range of inhibition at 50 µg/mL: 81 to 100% for the first, 81 to 100% for the second.

Compared with `O=C(NC(=O)c1c(F)cccc1F)Nc1ccc(C(O)(C(F)(F)F)C(F)(F)F)cc1` [compound 4], `CCOC(=O)c1ccc(NC(=O)NC(=O)c2c(F)cccc2F)cc1` [compound 5] is lower in inhibition at 50 µg/mL: 81 to 100% for the first, 41 to 60% for the second.

Compared with `O=C(NC(=O)c1c(F)c(F)c(F)c(F)c1F)Nc1c(F)c(F)c(F)c(F)c1F` [compound 6], `Nc1cc(N)c(Cl)c(C(=O)NC(=O)Nc2ccc(Cl)cc2)c1Cl` [compound 9] is lower in inhibition at 50 µg/mL: 81 to 100% for the first, 21 to 40% for the second.

`Nc1ccc(C(=O)NC(=O)Nc2ccccc2N)cc1` [compound 8] and `Nc1ccccc1C(=O)NC(=O)Nc1ccc(Cl)cc1` [compound 13] fall in the same range of inhibition at 50 µg/mL: 1 to 20% for the first, 1 to 20% for the second.

First: O=C(NC(=O)c1ccccc1N1CCCCC1)Nc1ccc(C(F)(F)F)cc1 [compound 10]
Second: CN(C)c1ccccc1C(=O)NC(=O)Nc1ccc(Cl)cc1 [compound 15]
The inhibition at 50 µg/mL of the first is lower: 1 to 20% for the first, 81 to 100% for the second.

First: CC(Oc1ccc(NC(=O)NC(=O)c2c(F)cccc2F)cc1)c1ccncc1 (centres unmarked) [compound 14]
Second: CCN(CC)c1cccc(F)c1C(=O)NC(=O)Nc1ccc(Cl)cc1 [compound 17]
The inhibition at 50 µg/mL of the first is higher: 61 to 80% for the first, 21 to 40% for the second.

For `O=C(NC(=O)Nc1ccc(Cl)cc1)NC(=O)c1c(O)cccc1Cl` [compound 16], the inhibition at 50 µg/mL was 61 to 80%.
